According to patent publication US9000028B2, “Indole and indazole compounds as an inhibitor of cellular necrosis” (LG Life Sciences Ltd., priority 2007, dated 2015):

Tested on: primary hepatocytes isolated from rats
Experiment: Hepatocyte protective effect against substances deriving hepatocyte toxicity (WST-1 viability)
Assay type: cell-based
Details: Rattus norvegicus, Hepatocyte, doxorubicin, 24-48 h, read-out: EC50, cell protective effects against doxorubicin in hepatocytes
Experimental: Various endogenous/exogenous attacks on the cells trigger the mechanisms of cell death which is broadly classified into two types, i.e. apoptosis or necrosis. Using these cell death mechanisms, in the present experimental example, primary hepatocytes isolated from rats were treated with drugs which were clinically shown to result in serious side-effects of hepatocyte toxicity or various chemicals which derive cell death, and the compounds synthesized in the Examples were estimated for their hepatocyte protective effects, after 24-48 h. The substances used to derive hepatocyte death include CCl4, ActD, H2O2, doxorubicin, anti-Fas Ab/Actinomycin D, acetaminophen, EtOH, CdCl2, palmitate, stearate, cyclophosphamide, terfenadine, diclofenac, simvastatin, and adefovir. Primary hepatocytes were isolated using the method of Seglen PO (Experimental Cell Research 74 (1972) pp 450-454). Briefly, hepatocytes were isolated according to the two-step collagenase perfusion method, and dead cells were removed by low speed (500 rpm) centrifugation for 10 min using percoll gradient (Kreamer B L etc, In Vitro Cellular & Developmental Biology 22 (1986) pp 201-211). During this step, the viability of cells was maintained 90% or above. The cells were suspended in HepatoZYME media (Gibco BRL), and the number of cells was counted. 1.5×10^4 cells in 100 μl were placed into the collagen-coated 96-well plate (BD biocoat), and adhered on the bottom for 3-4 h.
In order to assess the hepatocyte protective effect, above adhered cells were pretreated with the Example compounds for 30 min. At this time, the concentration of the Example compounds were serially diluted by 2-fold or 3-fold over 5 steps starting from 30 uM, 10 uM or 1 uM depending on the experiments, and the final concentration of DMSO was adjusted to 0.2%. 30 min after the treatment by compounds, cells were treated by the substances deriving hepatocyte death or hepatotoxic drugs at the concentrations indicated in Table 1. After 24-48 h, the viability of cells was determined to estimate the hepatocyte protective effects. The viability of cells was determined using WST-1 (MK-400, […]) method by the absorbance at 440 nm. Hepatocyte protective effects of the Example compounds were represented by “EC50,” which was calculated from measured values. “EC50” herein means the concentration of the compound at which 50% of maximum protective effect is observed in the experiment.

SMILES | EC50 [nM]
Cc1cc(NC2CCN(C(=O)CO)CC2)c2[nH]c(-c3ccccc3)cc2c1 [Example 92, 2-Hydroxy-1-[4-(5-methyl-2-phenyl-1H-indol-7-yl)amino-piperidin-1-yl]-ethanone] | 36
CC(=O)Nc1ccc(-c2cc3cc(N4CCS(=O)(=O)CC4)cc(NCC4CCOCC4)c3[nH]2)cc1 [Example 87, (Tetrahydropyran-4-yl)methyl-{5-(1,1-dioxo-thiomorpholin-4-yl)-2-[4-(acetyl)aminophenyl]-1H-indol-7-yl}-amine] | 600
c1ccc(-c2cc3cccc(NC4CCCC4)c3[nH]2)nc1 [Example 7, Cyclopentyl-[2-(pyridin-2-yl)-1H-indol-7-yl]amine] | 500
Cc1ccc(Nc2cc(Cl)cc3cc(-c4ccccc4)[nH]c23)nc1 [Example 114, (5-Chloro-2-phenyl-1H-indol-7-yl)-5-methyl-pyridin-2-yl-amine] | 370
O=C(C1CCCO1)N1CCC(Nc2cc(CN3CCS(=O)(=O)CC3)cc3cc(-c4ccccc4)[nH]c23)CC1 (centres unmarked) [Example 98, {4-[5-(1,1-Dioxo-thiomorpholin-4-yl)methyl-2-phenyl-1H-indol-7-yl]amino-piperidin-1-yl}-(tetrahydrofuran-2-yl)-methanone] | 110
CC(=O)Nc1ccc(-c2cc3cc(N4CCS(=O)(=O)CC4)cc(NC(C4CCOCC4)C4CCOCC4)c3[nH]2)cc1 [Example 88, Di(tetrahydropyran-4-yl)methyl-{5-(1,1-dioxo-thiomorpholin-4-yl)-2-[4-(acetyl)aminophenyl]-1H-indol-7-yl}-amine] | > 2000
O=C(Nc1ccccc1)N1CCC(Nc2cc(Cl)cc3cc(-c4ccccc4)[nH]c23)CC1 [Example 94, 4-(5-Chloro-2-phenyl-1H-indol-7-yl)amino-piperidin-1-yl-carboxylic acid phenylamide] | 80
Cc1cc(NC2CCN(Cc3ccccc3)C2)c2[nH]c(-c3ccccn3)cc2c1 (centres unmarked) [Example 14, (1-Benzylpyrrolidin-3-yl)[5-methyl-2-(pyridin-2-yl)-1H-indol-7-yl]-amine] | 300
CCOC(=O)Cc1cc(NC2CCCC2)c2[nH]c(-c3ccccc3)cc2c1 [Example 31, 2-[7-(Cyclopentyl)amino-2-phenyl-1H-indol-5-yl]-acetic acid ethyl ester] | 160
Cc1cc(NC2CCCC2)c2[nH]c(-c3cccc(C)n3)cc2c1 [Example 19, Cyclopentyl-[5-methyl-2-(6-methylpyridin-2-yl)-1H-indol-7-yl]-amine] | 70
O=C1CN(CCc2cccc(-c3cc4cc(Cl)cc(NC5CCOCC5)c4[nH]3)c2)CCN1 [Example 151, {5-Chloro-2-[3-(2-oxo-piperazin-4-yl)ethylphenyl]-1H-indol-7-yl}-(tetrahydropyran-4-yl)-amine] | > 2000
Clc1cc(NCC2CCCC2)c2[nH]c(-c3ccccc3)cc2c1 [Example 49, Cyclopentylmethyl-(5-chloro-2-phenyl-1H-indol-7-yl)-amine] | 133
O=S1(=O)CCN(Cc2cc(NC3CCOCC3)c3[nH]cc(-c4ccccc4)c3c2)CC1 [Example 161, (Tetrahydropyran-4-yl)-[5-(1,1-dioxo-thiomorpholin-4-yl)methyl-3-phenyl-1H-indol-7-yl)-amine] | 360
COc1ccc(-c2n[nH]c3c(NCC4CCOCC4)cccc23)cc1 [Example 159, [3-(4-Methoxyphenyl)-1H-indazol-7-yl)-(tetrahydropyran-4-ylmethyl)-amine] | 110
c1ccc(-c2cc3cccc(NC4CCOCC4)c3[nH]2)nc1 [Example 8, (Tetrahydropyran-4-yl)-[2-(pyridin-2-yl)-1H-indol-7-yl]-amine] | 2500
Clc1cc(NC2CCOCC2)c2[nH]c(-c3ccccc3)cc2c1 [Example 48, (Tetrahydropyran-4-yl)-(5-chloro-2-phenyl-1H-indol-7-yl)-amine] | 44
Cc1cc(NC(=O)Nc2ccccc2)c2[nH]c(-c3ccccn3)cc2c1 [Example 24, 1-Phenyl-3-[5-methyl-2-(pyridin-2-yl)-1H-indol-7-yl]-urea] | 900
CN1CCC(Nc2ccc(-c3cc4cc(Cl)cc(NC5CCCC5)c4[nH]3)cc2)CC1 [Example 83, Cyclopentyl-{5-chloro-2-[4-(1-methyl-piperidin-4-yl)aminophenyl]-1H-indol-7-yl}-amine] | 50
O=C1CCC(Nc2cc(Cl)cc3cc(-c4ccccc4)[nH]c23)CC1 [Example 21, 4-[(5-Chloro-2-phenyl-1H-indol-7-yl)amino]-cyclohexan-1-one] | 40

SMILES | EC50 [nM]
c1cc(NC2CCCC2)c2[nH]c(-c3cnccn3)cc2c1 [Example 5, Cyclopentyl-[2-(pyrazin-2-yl)-1H-indol-7-yl]-amine] | 500
CN(C)Cc1cccc(-c2cc3cc(Cl)cc(NC4CCOCC4)c3[nH]2)c1 [Example 147, [5-Chloro-2-(3-dimethylaminomethylphenyl)-1H-indol-7-yl]-(tetrahydropyran-4-yl)-amine] | 460
O=C(O)c1ccc(-c2cc3cc(Cl)cc(NC4CCCC4)c3[nH]2)cc1 [Example 138, 4-(5-Chloro-7-cyclopentylamino-1H-indol-2-yl)-benzoic acid] | 100
OCc1cccc(-c2cc3cc(Cl)cc(NC4CCCC4)c3[nH]2)c1 [Example 125, [3-(5-Chloro-7-cyclopentylamino-1H-indol-2-yl)-phenyl]-methanol] | 111
CN(C)C1CCC(Nc2cc(Cl)cc3cc(-c4ccccc4)[nH]c23)CC1 (centres unmarked) [Example 100, N-(5-chloro-2-phenyl-1H-indol-7-yl)-N′,N′-dimethyl-cyclohexane-1,4-diamine] | 80
CC(=O)N1CCC(Nc2cc(C)cc3cc(-c4ccccc4)[nH]c23)CC1 [Example 45, 1-[-4-[(5-Methyl-2-phenyl-1H-indol-7-yl)amino]piperidin-1-yl]ethanone] | 210
O=C(O)Cc1cccc(-c2cc3cc(Cl)cc(NCC4CCOCC4)c3[nH]2)c1 [Example 127, 2-{3-[5-Chloro-7-(tetrahydropyran-4-ylmethyl)amino-1H-indol-2-yl]-phenyl}-acetic acid] | 590
O=C(O)Cc1ccc(-c2cc3cc(Cl)cc(NCC4CCOCC4)c3[nH]2)cc1 [Example 139, 2-{4-[5-Chloro-7-(tetrahydropyran-4-ylmethyl)amino-1H-indol-2-yl]phenyl}-acetic acid] | 330
c1cc(NC2CCCC2)c2[nH]ncc2c1 [Example 153, Cyclopentyl-(1H-indazol-7-yl)-amine] | 2100
O=C(O)C[C@@H]1CSC(c2cc(NCC3CCOCC3)c3[nH]c(-c4ccccc4)cc3c2)=N1 [Example 122, 2-[(R)-2-(2-phenyl-7-(tetrahydropyran-4-yl)methylamino-1H-indol-5-yl)-4,5-dihydro-thiazol-4-yl]-acetic acid] | 200
NC(=O)C1CCC(Nc2cc(Cl)cc3cc(-c4ccccc4)[nH]c23)CC1 (centres unmarked) [Example 104, 4-(5-Chloro-2-phenyl-1H-indol-7-yl)amino-cyclohexane-1-carboxylic acid amide] | 80
Clc1cc(NC2CCNCC2)c2[nH]c(-c3ccccc3)cc2c1 [Example 93, (5-Chloro-2-phenyl-1H-indol-7-yl)-piperidin-4-yl-amine] | 160
O=C(O)c1cccc(-c2cc3cc(Cl)cc(NC4CCCC4)c3[nH]2)c1 [Example 124, 3-(7-Cyclopentylamino-5-chloro-1H-indol-2-yl)-benzoic acid] | 150
O=S1(=O)CCC(N2CCC(Nc3cc(F)cc4cc(-c5ccccc5)[nH]c34)CC2)CC1 [Example 99, (5-Fluoro-2-phenyl-1H-indol-7-yl)-[1-(1,1-dioxo-tetrahydrothiopyran-4-yl)-piperidin-4-yl]-amine] | 200
Cc1cc(NC2CCC(C(=O)O)CC2)c2[nH]c(-c3ccccc3)cc2c1 (centres unmarked) [Example 103, 4-(5-Methyl-2-phenyl-1H-indol-7-yl)amino-cyclohexane-1-carboxylic acid] | 106
OCc1cc(NC2CCCC2)c2[nH]c(-c3ccccc3)cc2c1 [Example 29, Cyclopentyl-[5-hydroxymethyl-2-phenyl-1H-indol-7-yl]-amine] | 70
OCCc1cc(NC2CCCC2)c2[nH]c(-c3ccccc3)cc2c1 [Example 32, 2-[7-(Cyclopentylamino)-2-phenyl-1H-indol-5-yl]ethanol] | 130
COC(=O)Cc1cccc(-c2cc3cc(Cl)cc(NC4CCCC4)c3[nH]2)c1 [Example 131, 2-[3-(5-Chloro-7-cyclopentylamino-1H-indol-2-yl)-phenyl]-acetic acid methyl ester] | 360
COC(=O)c1cccc(-c2cc3cc(Cl)cc(NC4CCCC4)c3[nH]2)c1 [Example 123, 3-(7-Cyclopentylamino-5-chloro-1H-indol-2-yl)-benzoic acid methyl ester] | 190
